Laboratory results as given in ChEMBL document CHEMBL3596184, “Prostate tumor specific peptide-peptoid hybrid prodrugs” (2015).
Numbered stars: 1 amine (or outer) side, 2 acyl side, 3 side chain; on linkers, the order of the positions; unused ones are H or OH. Square brackets hold non-standard residues; d marks the D form. Peptide text beside a SMILES is read from it. γGlu = O=C(O)[C@H](CCC(=O)[*:2])N[*:1]; Nspe = C[C@H](NCC(=O)O)c1ccccc1; Nlys = NCCCCNCC(=O)O

Tests used:
Format in all cases: functional
PC-3 = test: Cytotoxicity against human PC3 cells assessed as induction of cell death after 48 hrs by MTS assay; details: PC-3, 48 h, read-out: LC50 (the source's name)
LNCaP [1] = test: Selectivity ratio of LC50 for human PC3 cells to LC50 for human LNCaP cells
LNCaP [2] = test: Cytotoxicity against human LNCAP cells assessed as induction of cell death after 48 hrs by MTS assay; details: read-out: LC50 (the source's name)

CC(C)C[C@H](NC(=O)[C@H](CCCCN)NC(=O)[C@H](CO)NC(=O)[C@H](CO)NC(=O)[C@H](Cc1cnc[nH]1)NC(=O)CC[C@H](NC(=O)CC[C@H](N)C(=O)O)C(=O)O)C(=O)N[C@@H](CCC(N)=O)C(=O)N(CCCCN)CC(=O)N(CC(=O)N(CC(=O)N(CCCCN)CC(=O)N(CC(=O)N(CC(=O)N(CCCCN)CC(=O)N(CC(=O)N(CC(=O)N(CCCCN)CC(=O)N(CC(=O)N(CC(N)=O)[C@@H](C)c1ccccc1)[C@@H](C)c1ccccc1)[C@@H](C)c1ccccc1)[C@@H](C)c1ccccc1)[C@@H](C)c1ccccc1)[C@@H](C)c1ccccc1)[C@@H](C)c1ccccc1)[C@@H](C)c1ccccc1 ({γGlu-γGlu}-HSSKLQ[Nlys][Nspe][Nspe][Nlys][Nspe][Nspe][Nlys][Nspe][Nspe][Nlys][Nspe][Nspe]-NH2) was tested, and the CC50 (PC-3) was 18 µM, the RatioLC50 (LNCaP [1]) was 1.8 and the CC50 (LNCaP [2]) was 10 µM.
C[C@@H](c1ccccc1)N(CC(N)=O)C(=O)CN(C(=O)CN(CCCCN)C(=O)CN(C(=O)CN(C(=O)CN(CCCCN)C(=O)CN(C(=O)CN(C(=O)CN(CCCCN)C(=O)CN(C(=O)CN(C(=O)CN(CCCCN)C(=O)CC[C@H](NC(=O)CC[C@H](N)C(=O)O)C(=O)O)[C@@H](C)c1ccccc1)[C@@H](C)c1ccccc1)[C@@H](C)c1ccccc1)[C@@H](C)c1ccccc1)[C@@H](C)c1ccccc1)[C@@H](C)c1ccccc1)[C@@H](C)c1ccccc1 ({γGlu-γGlu}-[Nlys][Nspe][Nspe][Nlys][Nspe][Nspe][Nlys][Nspe][Nspe][Nlys][Nspe][Nspe]-NH2) gave a CC50 (PC-3) of 18 µM, a RatioLC50 (LNCaP [1]) of 1.8 and a CC50 (LNCaP [2]) of 10 µM.
